Data on eight compounds can be found in patent US20240124427A1, “HYDROXYHETEROCYCLOALKANE-CARBAMOYL DERIVATIVES” (Idorsia Pharmaceuticals Ltd, priority 2021, published 2024).

One test concerns the target human Gal-3 (hGal-3) (Homo sapiens (Human), UniProt P17931). Put plainly: Competitive binding assay: biotinylated hGal-3 binding to microplate-adsorbed asialofetuin (ASF). The essentials:
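Spectrophotometric read-out using streptavidin-peroxidase and ABTS quantifies how much biotin-hGal-3 remains bound to microplate asialofetuin after 3 h at 4 °C with compound present. Values are means of repeated IC50 determinations.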

In a further test the target is human Gal-1 (hGal-1) (Homo sapiens, UniProt P09382). Type of test: binding.
Sequence of human Gal-1 (hGal-1) (P09382 2-135 limits assumed): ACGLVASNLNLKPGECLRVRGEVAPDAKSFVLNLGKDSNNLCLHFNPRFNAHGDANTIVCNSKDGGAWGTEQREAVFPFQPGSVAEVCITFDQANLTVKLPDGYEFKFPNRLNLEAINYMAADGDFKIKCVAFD
[1] abbreviates: Activity on hGal-3, mean values of several measurements, mixture of diastereomers measured where not separated.

What is called IC50 is the concentration needed to halve the response being measured.

Each structure is given as a SMILES string. Like-named read-outs stand apart in the source and are kept apart here.

Sequence of human Gal-3 (hGal-3) (P17931 whole entry): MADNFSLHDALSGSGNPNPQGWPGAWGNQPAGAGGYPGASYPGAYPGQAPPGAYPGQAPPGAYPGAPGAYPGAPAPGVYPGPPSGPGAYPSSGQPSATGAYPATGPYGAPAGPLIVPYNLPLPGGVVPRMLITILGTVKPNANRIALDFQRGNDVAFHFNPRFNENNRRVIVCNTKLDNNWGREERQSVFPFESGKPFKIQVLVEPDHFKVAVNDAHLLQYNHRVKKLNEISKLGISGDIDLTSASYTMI

For `CO[C@@H]1[C@@H](n2cc(-c3cc(F)c(C)c(F)c3)nn2)[C@@H](O)[C@@H](CO)O[C@H]1C(=O)N(c1cc(C)cc(Br)c1)[C@H]1CNC[C@@H]1O` [Example 70], the half-maximal inhibitory concentration (IC50) at human Gal-3 (hGal-3) was found to be 56 nM; against human Gal-1 (hGal-1), 1800 nM. The matching figures for `CO[C@@H]1[C@@H](n2cc(-c3cc(F)c(F)c(F)c3)nn2)[C@@H](O)[C@@H](CO)O[C@H]1C(=O)N(c1cc(Br)cc(Br)c1)[C@H]1CN(C(C)=O)C[C@@H]1O` [Example 84]: 70 nM and 1210 nM. The matching figures for `CO[C@@H]1[C@@H](n2cc(-c3cc(F)c(Cl)c(F)c3)nn2)[C@@H](O)[C@@H](CO)O[C@H]1C(=O)N(c1cc(Br)cc(Br)c1)[C@@H]1CN(C(C)=O)C[C@H]1O` [Example 87]: 36 nM and 1860 nM. For `CO[C@@H]1[C@@H](n2cc(-c3ccc(Cl)c(Cl)c3)nn2)[C@@H](O)[C@@H](CO)O[C@H]1C(=O)N(c1cc(Cl)cc(Cl)c1)[C@@H]1CN(C(C)=O)C[C@H]1O` [Example 88] the same measures were 71 nM and 657 nM. As for `CO[C@@H]1[C@@H](n2cc(-c3cc(F)c(Cl)c(F)c3)nn2)[C@@H](O)[C@@H](CO)O[C@H]1C(=O)N(c1cc(Cl)cc(Cl)c1)[C@@H]1CN(C(C)=O)C[C@H]1O` [Example 86], the IC50 on human Gal-3 (hGal-3) was determined as 64 nM; on human Gal-1 (hGal-1), 1780 nM. The matching figures for `CO[C@@H]1[C@@H](n2cc(-c3cc(F)c(C)c(F)c3)nn2)[C@@H](O)[C@@H](CO)O[C@H]1C(=O)N(c1cc(Cl)cc(Cl)c1)[C@@H]1CN(C(C)=O)C[C@H]1O` [Example 85]: 327 nM and 13400 nM. As for `CO[C@@H]1[C@@H](n2cc(-c3cc(F)c(F)c(F)c3)nn2)[C@@H](O)[C@@H](CO)O[C@H]1C(=O)N(c1cc(C)cc(C#N)c1)[C@@H]1COC[C@H]1O` [Example 39, (2R,3R,4S,5R,6R)-N-(3-cyano-5-methylphenyl)-5-hydroxy-6-(hydroxymethyl)-N-((3R,4S)-4-hydroxytetrahydrofuran-3-yl)-3-methoxy-4-(4-(3,4,5-trifluorophenyl)-1H-1,2,3-triazol-1-yl)tetrahydro-2H-pyran-2-carboxamide], the half-maximal inhibitory concentration (IC50) at human Gal-3 (hGal-3) (setting [1]) amounted to 69 nM. The same measure, in the same setting: for `CO[C@@H]1[C@@H](n2cc(-c3ccc(Br)c(F)c3F)nn2)[C@@H](O)[C@@H](CO)O[C@H]1C(=O)N(c1cc(Cl)cc(Cl)c1)[C@H]1CN(C=O)C[C@@H]1O` [Example 91, (2R,3R,4S,5R,6R)-4-(4-(4-bromo-2,3-difluorophenyl)-1H-1,2,3-triazol-1-yl)-N-(3,5-dichlorophenyl)-N-((3S,4S)-1-formyl-4-hydroxypyrrolidin-3-yl)-5-hydroxy-6-(hydroxymethyl)-3-methoxytetrahydro-2H-pyran-2-carboxamide] the value was 20 nM.
